One block for each compound: values may come before it.
Columns and labels:
[1] = test system: interferon γ (IFN-γ) production; test: Cytokine production inhibitory effect: IFN-γ production by murine spleen cells treated with anti-mouse CD3 antibody and IL-2 (ELISA); assay type: cell-based, Balb/c mice; details: test compound 100 ppm, anti-CD3 antibody + IL-2, 40 to 48 hours, read-out: IFN-γ production inhibitory ratio (%)
Experimental: (§1) Murine spleen cells were treated with anti-mouse CD3 antibody and IL-2 to induce cytokine production. The test compounds were added to the cytokine production system to evaluate their inhibitory effect. Namely, anti-mouse CD3 antibody adjusted to from 10 to 20 μg/ml with borate buffered physiological saline (pH 8.5) was pipetted into a 96-well cell culture plate in an amount of 50 μl/well and left to stand at 4° C. for 18 hours. The unreacted solution was removed, washing with Hank's buffer solution was carried out once, and IL-2 adjusted to 10 ng/ml with a RPMI liquid containing 10% fetal bovine serum (FCS) was pipetted in an amount of 50 μl/well. For the negative control group, a solution alone without anti-CD3 antibody nor IL-2 was applied. Then, the diluted solution of each of the test compounds (concentration: 100 ppm unless otherwise specified) was pipetted in an amount of 50 μl/well, and a cell suspension of 1×10^7 cells/ml, prepared from spleen of Balb/c mice (female, 7 to 10 week old) was pipetted thereinto in an amount of 100 μl/well. After cultivation in an incubator (37° C., 5% carbon dioxide gas) for from 40 to 48 hours, the culture supernatant was recovered to measure the cytokine production amount by ELISA method.
(§2) With respect to interleukin 5 (IL-5) as a typical Th2 type cytokine and interferon γ (IFN-γ) as a typical Th1 type cytokine, measurements were carried out by the following methods, respectively. Namely, quantitative determination of IL-5 was carried out by the following ELISA method. First, rat anti-mouse IL-5 antibody (Endogen Code No. MM-550C) as a primary antibody was diluted with carbonate buffer solution (pH 9.5) to 1 μg/ml, and spread in a 96 well plate (IWAKI, Code No. 3860-096) in an amount of 50 μl/well for coating at 4° C. overnight (16 to 24 hours). Then, the plate was subjected to blocking at 37° C. for 2 hours by phosphate buffered physiological saline containing 10% FCS (pH 7.2) (blocking buffer solution) (250 μl/well). The plate was washed with PBS (washing buffer) containing 0.05% Tween 20 (Nacalai Tesque, Code No. 281-51) four times, and a diluted liquid of the culture supernatant was spread in an amount of 50 μl/well, followed by incubation at room temperature for 1 hour. For preparation of a standard line, recombinant mouse IL-5 (R&D systems, Code No. 405-ML) was employed. The plate was washed with a washing buffer four times, and biotin-labeled rat anti-mouse IL-5 antibody (Pharmingen, Code No. 18062D) as a secondary antibody diluted to 0.5 μg/ml with a blocking buffer containing 0.05% Tween 20 was added thereto (50 μl/well), followed by incubation at room temperature for 1 hour. The plate was washed with a washing buffer four times, strept avidin-labeled peroxidase (ProZyme, Code No. CJ30H001) diluted 800 times with a blocking buffer containing 0.05% Tween 20 was added thereto (50 μl/well), followed by reaction at room temperature for 15 minutes. The plate was washed with a washing buffer four times, and a […] substrate solution (SIGMA, Code No. T-8665) was added thereto in an amount of 100 μl/well for color developing for from 10 to 20 minutes. A 1M sulfuric acid solution was added thereto in an amount of 100 μl/well to terminate the reaction, and absorption (wavelength 450 nm) was measured by means of micro plate reader (SPECTRA max, Wako Pure Chemicals Industries, Ltd.). Quantitative determination of IFN-γ was carried out in the same manner as the measurement of IL-5, employing rat anti-mouse IFN-γ antibody (Pharmingen, Code No. 18181D) and biotin labeled rat anti-mouse IFN-γ antibody (Pharmingen, Code NO. 18112D), as a primary antibody and a secondary antibody, respectively. For preparation of a standard line, recombinant mouse IFN-γ (GENZYME, Code No. 3485) was employed. The experiment was carried out in duplicate, and the average of the cytokine production amount was obtained. […]

[2] = test system: interleukin 5 (IL-5) production; test: Cytokine production inhibitory effect: IL-5 production by murine spleen cells treated with anti-mouse CD3 antibody and IL-2 (ELISA); assay type: cell-based, Balb/c mice; details: test compound 100 ppm, anti-CD3 antibody + IL-2, 40 to 48 hours, read-out: IL-5 production inhibitory ratio (%)
Experimental: as §1, §2

SMILES: O=C(Nc1ccc(S(=O)(=O)NC2=NC3C=CC=CC3N=C2)cc1)c1cc([N+](=O)[O-])ccc1Cl (stereo not drawn) [compound 138]
inhibition at 100 ppm [1]: 100%
inhibition at 100 ppm [2]: 99%
melting point: 146 to 150 °C

SMILES: Cc1cc(C23CC4CC(CC(C4)C2)C3)ccc1NC(=O)c1cccc([N+](=O)[O-])c1 [compound 23]
inhibition at 100 ppm [1]: 100%
inhibition at 100 ppm [2]: 100%
melting point: 177 °C

SMILES: CSc1ccc(Cl)c(C(=O)Nc2ccc(C34CC5CC(CC(C5)C3)C4)cc2C)c1 [compound 68]
inhibition at 100 ppm [1]: 99%
inhibition at 100 ppm [2]: 92%
melting point: 65 °C

SMILES: O=C(Nc1ccc2c(c1)CCC2)c1cc([N+](=O)[O-])ccc1Cl [compound 139]
inhibition at 100 ppm [1]: 50%
inhibition at 100 ppm [2]: 89%
melting point: 225 to 229 °C

SMILES: Cc1cc(C23CC4CC(CC(C4)C2)C3)ccc1NC(=O)c1cc(C#N)ccc1Cl [compound 76]
inhibition at 100 ppm [1]: 96%
inhibition at 100 ppm [2]: 96%
melting point: 184 to 187 °C

SMILES: O=C(Nc1nc2ccccc2s1)c1cc([N+](=O)[O-])ccc1Cl [compound 143]
inhibition at 100 ppm [1]: 100%
inhibition at 100 ppm [2]: 97%
melting point: 221 to 227 °C

SMILES: Cc1cc(C23CC4CC(CC(C4)C2)C3)ccc1NC(=O)c1ccc(Cl)cc1Cl [compound 3]
inhibition at 100 ppm [1]: 92%
inhibition at 100 ppm [2]: 79%
melting point: 211 °C

SMILES: O=C(Nc1ccc(OCC23CC4CC(CC(C4)C2)C3)cc1)c1cc([N+](=O)[O-])ccc1Cl [compound 110]
inhibition at 100 ppm [1]: 100%
inhibition at 100 ppm [2]: 99%
melting point: 175 to 180 °C

SMILES: N#Cc1ccc(Cl)c(C(=O)Nc2ccc(Oc3ncc(C(F)(F)F)cc3Cl)cc2)c1 [compound 86]
inhibition at 100 ppm [1]: 29%
inhibition at 100 ppm [2]: 87%
melting point: 209 to 212 °C

SMILES: O=[N+]([O-])c1ccc(Cl)c(S(=O)(=O)Nc2ccc(Oc3ncc(C(F)(F)F)cc3Cl)cc2)c1 [compound 80]
inhibition at 100 ppm [1]: 100%
inhibition at 100 ppm [2]: 100%
melting point: 171 °C

SMILES: O=C(Nc1cccc(Oc2ccccc2)c1)c1cc([N+](=O)[O-])ccc1Cl [compound 40]
inhibition at 100 ppm [1]: 100%
inhibition at 100 ppm [2]: 100%
melting point: 103 °C

SMILES: CS(=O)(=O)c1ccc(Cl)c(C(=O)Nc2ccc(Oc3ncc(C(F)(F)F)cc3Cl)cc2)c1 [compound 88]
inhibition at 100 ppm [1]: 17%
inhibition at 100 ppm [2]: 72%
melting point: 221 °C

SMILES: Cc1cc(C23CC4CC(CC(C4)C2)C3)ccc1NC(=O)c1cc(Cl)ccc1[N+](=O)[O-] [compound 57]
inhibition at 100 ppm [1]: 98%
inhibition at 100 ppm [2]: 90%
melting point: 233 °C

SMILES: O=C(Nc1ccc(OC2C3CC4CC(C3)CC2C4)cc1)c1cc([N+](=O)[O-])ccc1Cl (stereo not drawn) [compound 111]
inhibition at 100 ppm [1]: 99%
inhibition at 100 ppm [2]: 99%
melting point: 178 to 180 °C

SMILES: Cc1cc(C23CC4CC(CC(C4)C2)C3)ccc1NC(=O)c1cc(C(F)(F)F)ccc1Cl [compound 70]
inhibition at 100 ppm [1]: 99%
inhibition at 100 ppm [2]: 98%
melting point: 69 °C

SMILES: COc1cccc(C(=O)Nc2ccc(Oc3ccc(C(F)(F)F)cn3)c(Cl)c2)c1 [Compound No. 10]
inhibition at 100 ppm [1]: 100%
inhibition at 100 ppm [2]: 100%
melting point: 103 to 105 °C

SMILES: O=C(Nc1ccc(Oc2ccc(C(F)(F)F)cn2)c(Cl)c1)c1ccccc1O [compound 15]
inhibition at 100 ppm [1]: 100%
inhibition at 100 ppm [2]: 99%
melting point: 165 to 167 °C

SMILES: Cc1cc(C23CC4CC(CC(C4)C2)C3)ccc1NC(=O)c1cc([N+](=O)[O-])ccc1F [compound 45]
inhibition at 100 ppm [1]: 99%
inhibition at 100 ppm [2]: 99%
melting point: 198 °C

SMILES: O=C(Nc1ccc2ncsc2c1)c1cc([N+](=O)[O-])ccc1Cl [compound 140]
inhibition at 100 ppm [1]: 100%
inhibition at 100 ppm [2]: 100%
melting point: 242 to 244 °C

SMILES: O=C(Nc1ccc(Oc2ncc(C(F)(F)F)cc2Cl)cc1C(=O)O)c1cc([N+](=O)[O-])ccc1Cl [compound 101]
inhibition at 100 ppm [1]: 100%
inhibition at 100 ppm [2]: 100%
melting point: 240 to 245 °C

More lines, main results first:

melting point: 226 °C
SMILES: O=C(c1ccccc1)c1ccc(NC(=O)c2cc([N+](=O)[O-])ccc2Cl)cc1 [compound 51]
inhibition at 100 ppm [1]: 100%
inhibition at 100 ppm [2]: 99%

melting point: 224 to 226 °C
SMILES: O=[N+]([O-])c1ccc(Cl)c(S(=O)(=O)Nc2ccc(Sc3ncc(C(F)(F)F)cc3Cl)cc2)c1 [compound 90]
inhibition at 100 ppm [1]: 100%
inhibition at 100 ppm [2]: 100%

melting point: 201 to 204 °C
SMILES: O=C(Nc1ccc(CO)cc1)c1cc([N+](=O)[O-])ccc1Cl [compound 92]
inhibition at 100 ppm [1]: 100%
inhibition at 100 ppm [2]: 99%

melting point: 193 to 195 °C
SMILES: O=C(Nc1ccc(OCc2ncc(C(F)(F)F)cc2Cl)cc1)c1cc([N+](=O)[O-])ccc1Cl [Compound No. 135, N-(4-(3-chloro-5-trifluoromethyl-2-pyridylmethyloxy)phenyl)-2-chloro-5-nitrobenzamide]
inhibition at 100 ppm [1]: 33%
inhibition at 100 ppm [2]: 62%

melting point: 235 to 237 °C
SMILES: O=C(Nc1ccc(Oc2ncc(C(F)(F)F)cc2Cl)c(N2CCCC2)c1)c1cc([N+](=O)[O-])ccc1Cl [compound 130]
inhibition at 100 ppm [1]: 99%
inhibition at 100 ppm [2]: 100%

melting point: 219 to 221 °C
SMILES: Cc1cc(Oc2ncc(C(F)(F)F)cc2Cl)ccc1NC(=O)c1cc([N+](=O)[O-])ccc1Cl [compound 91]
inhibition at 100 ppm [1]: 1%
inhibition at 100 ppm [2]: 53%

melting point: 246 to 248 °C
SMILES: Cc1cc(NC(=O)c2cc([N+](=O)[O-])ccc2Br)ccc1Oc1ncc(C(F)(F)F)cc1Cl [compound 120]
inhibition at 100 ppm [1]: 35%
inhibition at 100 ppm [2]: 84%

melting point: 165 to 167 °C
SMILES: O=C(Nc1ccc(Oc2ncc(C(F)(F)F)cc2Cl)c(-n2cccc2)c1)c1cc([N+](=O)[O-])ccc1Cl [Compound No. 127, N-(4-(3-chloro-5-trifluoromethyl-2-pyridyloxy)-3-(1-pyrrolyl)phenyl)-2-chloro-5-nitrobenzamide]
inhibition at 100 ppm [1]: 100%
inhibition at 100 ppm [2]: 100%

melting point: 189 °C
SMILES: O=C(Nc1ccc(Sc2ccc(C(F)(F)F)cn2)cc1)c1cc([N+](=O)[O-])ccc1Cl [compound 32]
inhibition at 100 ppm [1]: 98%
inhibition at 100 ppm [2]: 99%

melting point: 198 °C
SMILES: O=C(Nc1ccc(Oc2ccccn2)cc1)c1cc([N+](=O)[O-])ccc1Cl [compound 63]
inhibition at 100 ppm [1]: 100%
inhibition at 100 ppm [2]: 100%

melting point: 229 to 231 °C
SMILES: N#Cc1ccc(Cl)c(C(=O)Nc2ccc(Sc3ncc(C(F)(F)F)cc3Cl)cc2)c1 [compound 87]
inhibition at 100 ppm [1]: 100%
inhibition at 100 ppm [2]: 100%

melting point: 180 to 183 °C
SMILES: O=C(Nc1ccc(Sc2ccccc2)cc1)c1cc([N+](=O)[O-])ccc1Cl [compound 69]
inhibition at 100 ppm [1]: 100%
inhibition at 100 ppm [2]: 100%

melting point: 174 °C
SMILES: O=C(Nc1ccc(Sc2ncc(C(F)(F)F)cc2Cl)cc1)c1cc([N+](=O)[O-])ccc1Cl [compound 59]
inhibition at 100 ppm [1]: 100%
inhibition at 100 ppm [2]: 100%

melting point: 116 °C
SMILES: O=C(Nc1ccc(=O)n(-c2ncc(C(F)(F)F)cc2Cl)c1)c1cc([N+](=O)[O-])ccc1Cl [compound 144]
inhibition at 100 ppm [1]: 100%
inhibition at 100 ppm [2]: 99%
